Results as given in patent publication US6903104B2, “Indol-3-YL-2-oxoacetamide compounds and methods of use thereof” (National Health Research Institutes, priority 2001, dated 2005).

Legend:
[1] = test system: nasopharyngeal HONE1 cancer cells; assay: In vitro cytotoxicity MTS assay, nasopharyngeal HONE1; type: cell-based, human; conditions: 72 hours
Description: (§1) A panel of human cancer cells, gastric NUGC3 and HR, nasopharyngeal HONE1, hepatocellular HEP G2 and HA-22T, colorectal DLD1, lung A549, prostate PC3, breast MCF7 and its adriamycin-resistant MCF7/ADR subline, uterus MES-SA and its adriamycin-resistant MES-SA/Dx5 subline, is purchased from Food Industry Research and Development Institute, Hsinchu, Taiwan R.O.C. or American Type Culture Collection, Manassas, Va. U.S.A., are used in in vitro cytotoxicity assays. The human cells are seeded at a cell density of 3000 or 4500 cells/100 μl/well in 96-well flat-bottom plates and incubated for 24 hours at 37° C. in a 5% CO2 incubator. The testing compounds are dissolved in dimethyl sulfoxide (DMSO) and further diluted into the culture medium for treatments of human cancer cells in vitro. The drug-containing media has a final DMSO concentration of ≦0.3%. The compounds of this invention are prepared in culture media for testing at a range of concentrations from 10, 1, 0.1, 0.01 to 0.001 μM. Each compound solution is (200 μl/well in duplicate) in the cell plates and is treated for 72 hours at 37° C., 5% CO2 in an incubator. Actinomycin D at 5 μM and 0.3% DMSO are used as the positive and vehicle controls, respectively. A colorimetric assay using 3-(4,5-dimethylthiazol-2-yl)-5-(3-carboxymethoxyphenyl)-2-(4-sulfophenyl)-2H-tetrazolium (MTS) and phenazine methosulfate (PMS) is used to determine the potency of the compounds. This assay measures cell viability based on the cellular activity in conversion of a tetrazolium salt into a colored soluble formazan product. The optical density (OD) values are measured at 490 nm with a 1420 multilabel counter VICTOR® from Wallac, Turku, Finland. All of the measured values are subtracted with that of the blank control wells without cells before further calculations. The efficacy data are expressed as a percentage normalized to the vehicle controls as calculated in the following formulae. Inhibitory potency (% of vehicle control)=[(OD490compound−OD490blank)/(OD490vehicle−OD490blank)]×100%. The concentration (IC50) of a test compound that inhibits 50% of the cellular activity is determined.

[2] = test system: hepatocellular HEP G2 cancer cells; assay: In vitro cytotoxicity MTS assay, hepatocellular HEP G2; type: cell-based, human; conditions: 72 hours
Description: as §1

[3] = test system: hepatocellular HA-22T cancer cells; assay: In vitro cytotoxicity MTS assay, hepatocellular HA-22T; type: cell-based, human; conditions: 72 hours
Description: as §1

[4] = test system: colorectal DLD1 cancer cells; assay: In vitro cytotoxicity MTS assay, colorectal DLD1; type: cell-based, human; conditions: 72 hours
Description: as §1

[5] = test system: adriamycin-resistant MCF7/ADR subline; assay: In vitro cytotoxicity MTS assay, adriamycin-resistant MCF7/ADR; type: cell-based, human; conditions: 72 hours
Description: as §1

[6] = test system: gastric NUGC3 cancer cells; assay: In vitro cytotoxicity MTS assay, gastric NUGC3; type: cell-based, human; conditions: 72 hours
Description: as §1

[7] = test system: murine leukemic P388 cells; assay: In vivo anticancer activity, murine leukemic P388 model; parameters: species or system DBA/2J mice; conditions: P388-inoculated mice; for increase of life span: P.O., daily, 4×
Description: The in vivo anticancer activities of the compounds are evaluated by the following murine leukemic P388 model. Inbred female DBA/2J mice of 4-5 week-old were purchased from the Charles River Laboratories Inc., Wilmington, Mass., USA and the National Laboratory Animals Breeding and Research Center, Taipei, Taiwan, ROC. Murine leukemic P388 cells are purchased from the Japanese Collection of Research Bioresources, Japan. P388 cells are cultured and propagated in RPMI1640 medium supplemented with 50 μM 2-mercaptoethanol and 10% fetal bovine serum. Mice at the age of 6 weeks were grouped as the treatment, negative control and positive control groups at 7 to 8 mice per group. All mice are intravenously inoculated with the P388 cells at one million per mouse one day before the treatments initiated. Compounds of this invention are dissolved in dimethyl sulfoxide (DMSO) and then diluted in 0.5% carboxymethyl cellulose with the final concentration of DMSO less than 0.5%. Different treatment groups are orally given (P.O.), respectively, with compounds of different doses for a pharmacological dose-response relationship. Mice of the negative control group are treated with the dosing vehicle, 0.5% carboxymethyl cellulose. Doxorubicin of the maximal tolerated dose, 10 mg/kg, is given intravenously as an experimental positive control. The cancer cell-inoculated animals are monitored twice daily. The time on which 50% of the P388-inoculated mice is still surviving is defined as the medium survival time and is used to calculate the percentage (normalized to the medium survival time of the control group) of increased in life span after treatment, which is then served as the index of treatment response.

breast MCF7 cancer cells = assay: In vitro cytotoxicity MTS assay, breast MCF7; type: cell-based, human; conditions: 72 hours
Description: as §1

gastric HR cancer cells = assay: In vitro cytotoxicity MTS assay, gastric HR; type: cell-based, human; conditions: 72 hours
Description: as §1

[8] = test system: rat aorta endothelial cells; assay: Rat aorta tube formation assay (angiogenesis inhibition); type: cell-based, Spraque-Dawley rats; parameters: key: Noninhibitors are indicated by the symbol (−), meaning that the extent of endothelial cell growth is essentially at the same level as that of the control; The most potent inhibitors receive a score of (+++++), indicating essentially no measurable endothelial cell growth; conditions: 5 days
Description: The procedures are modified from previous reports (Burbridge and West 2001; Bauer et al. 2000; Nicosai and Ottinetti 1990a) and described as follows. Male Spraque-Dawley rats of 6-8 weeks old are purchased from the National Laboratory Animal Breeding and Research Center (Taipei, Taiwan). The animals are anesthetized with urethane (2 g/kg, intraperitoneal) and the thoracic aortas are quickly harvested in a laminar flow hood. The aortas are rinsed with ice-cold normal saline with 10 μg/ml gentamicin and the attached fibroadipose tissues are removed using micro-dissection scissors. The aortas are cross-sectioned into rings of 1 mm in thickness. A mixture of Matrigel®, purchased from BD Biosciences, solution and the EBM-II medium, purchased from BioWhittaker Inc., (1:1) with 2% FBS, 0.25 mg/ml, amphotericin B and 10 μg/ml gentamicin is prepared and added at 100 μl to each well of a 48-well plate. The mixture is allowed to gel at 37° C. Aorta rings are then placed onto the gelled matrix and embedded in an additional 150 μl per well of the mixture solution and allowed to gel at 37° C. The aorta rings are then covered with 125 μl of the EGM-II medium and incubated overnight in humidified incubator with 5% CO2/95% air at 37° C. After removal of the EGM-II from the established aorta cultures, the compound-containing media are applied at 300 μl per well to the cultures and then incubated in 5% CO2/95% air at 37° C. for 5 days. The cultures are then subject to the 3-[4,5-dimethylthiazol-2-yl]-2,5 diphenyl-2H-tetrazolium bromide (MTT) or 3-(4,5-dimethylthiazol-2-yl)-5-(3-carbomethoxyphenyl)-2H-tetrazolium (MTS) assay and OD490 nm values measured. The testing compounds are dissolved in dimethyl sulfoxide (DMSO) and prepared in EBM-II media with at a final concentration of DMSO less than 0.1%.
The capillary-like, tube structure of the outgrown rat aorta endothelial cells is easily visualized by MTT staining. The medium on top of the matrix is removed from the established aorta ring cultures. MTT solution of 5 mg/ml in saline is added to the cultures at 100 μl/well and the cultures are incubated in a CO2 incubator at 37° C. for 24 hr. The stained cultures are then examined under a microscope DMIRB from Leica and photos taken with a digital camera.
Inhibition activity is also assessed in the following manner. The reductive reaction of MTS initiated by the viable cellular mitochondrial activity is used as a basis for the measurement of cell viability (Cory et al. 1991; Gieni et al. 1995). To the rat aorta ring cultures 300 μl of a solution containing 100 μg MTS and 1 μg, phenazine methosulfate is added per well and incubated in 5% CO2/95% air at 37° C. for 24 hr. During the incubation, MTS is converted to formazan product. At the end of incubation, the solution overlaying the gel is well-mixed and 100 μl aliquots are transferred into a 96-well plate for measurement of OD490 nm with a spectrophotometer VICTOR™-II from Wallac Oy.
The compounds listed in Table 3 are screened for angiogenesis inhibition. The control compound, ASTA, is D-24851, N-[pyridin-4-yl]-[1-(4-chlorobenzyl)-indol-3-yl]-glyoxylic acid amide. Noninhibitors are indicated by the symbol (−), meaning that the extent of endothelial cell growth is essentially at the same level as that of the control.

Row | SMILES | IC50 [1] | IC50 [2] | IC50 [3] | IC50 [4] | IC50 [5] | IC50 [6] | increase of life span ([7]; 25 mg/kg) | increase of life span ([7]; 50 mg/kg) | increase of life span ([7]; 100 mg/kg) | increase of life span ([7]; 150 mg/kg) | increase of life span ([7]; 200 mg/kg) | increase of life span ([7]; 400 mg/kg) | activity in the increase of life span (dose-response) ([7]; oral) | IC50 (breast MCF7 cancer cells) | IC50 (gastric HR cancer cells) | Inhibition Score ([8]; final conc. 0.3 μg/ml) | Inhibition Score ([8]; final conc. 1 μg/ml)
1 | O=C(Nc1ccc2ncccc2c1)C(=O)c1cn(Cc2ccsc2)c2ccccc12 [Compound 48] | 217 nM | 4130 nM | 303 nM | 1430 nM | 371 nM | 206 nM | 25% | 60% | 25% | 68 ± 25% | 63% | 229% | dose-dependent activity | 915 nM | 552 nM | – | –
2 | COc1ccc(NC(=O)C(=O)c2cn(Cc3ccsc3)c3ccccc23)cc1 [Compound 50] | 38 nM | 1320 nM | 46 nM | 734 nM | 406 nM | 37 nM | – | – | – | – | – | – | – | 171 nM | 128 nM | – | –
3 | N#Cc1ccc(Cn2cc(C(=O)C(=O)Nc3cc(-c4ccc(Cl)cc4)no3)c3ccccc32)cc1 [Compound 30] | 332 nM | 953 nM | 558 nM | 926 nM | 847 nM | 639 nM | – | – | – | – | – | – | – | 920 nM | 739 nM | – | –
4 | O=C(Nc1ccc2ncccc2c1)C(=O)c1cn(Cc2ccco2)c2ccccc12 [Compound 42] | 296 nM | 3980 nM | 345 nM | 799 nM | 527 nM | 634 nM | – | – | – | – | – | – | – | 928 nM | 453 nM | +++++ | –
5 | Cc1cc(Cn2cc(C(=O)C(=O)Nc3ccc(Br)cc3)c3ccccc32)on1 [Compound 62] | 42 nM | 6810 nM | 148 nM | 651 nM | 509 nM | 137 nM | – | – | – | – | – | – | – | 872 nM | 300 nM | – | –
6 | O=C(Nc1ccc2ncccc2c1)C(=O)c1cn(Cc2cscn2)c2ccccc12 [Compound 77] | 380 nM | > 10000 nM | 469 nM | 1500 nM | 595 nM | 458 nM | – | – | – | – | – | – | – | 1320 nM | 721 nM | +++++ | –
7 | Cc1cc(NC(=O)C(=O)c2cn(Cc3cccs3)c3ccccc23)sn1 [Compound 44] | – | – | – | – | – | – | – | – | – | – | – | – | – | – | – | – | +++++
